What was measured:
NURR-1/RXRγ = target: T1, NURR-1/RXRγ (Homo sapiens, UniProt P48443); experiment: Transactivation test, NURR-1-Gal4/RXRγ, luciferase reporter in Cos-7 cells; format: cell-based; conditions: for Emax: COS-7, induction level relative to reference XCT0135908 at 2×10^−5 M (=100%), read-out: hNurr1_RXRgFL Emax (%); for EC50: Cos-7 cells, NURR-1-Gal4/RXRγ, luciferase reporter, read-out: hNurr1_RXRgFL EC50
T1 construct: expressed in transfected cells; host or cells: Cos-7 cells
Experimental: (§1) The ability of the compounds according to the invention to behave as an activator of the heterodimers formed by the NURR-1 nuclear receptor and the RXR nuclear receptors was measured by means of an in vitro test. A transactivation test was used as primary selection (screening) test. Cos-7 cells were cotransfected with a plasmid expressing a chimera of the human NURR-1-Gal4 receptor, a plasmid expressing the human RXR receptor (RXRα or RXRγ receptor) and a 5Gal4pGL3-TK-Luc reporter plasmid. The transfctions were carried out using a chemical agent (Jet PEI). The transfected cells were distributed into 384-well plates and left to stand for 21 hours. At time 24 hours the culture medium was changed. The test products were added (final concentration of between 10^''4 and 3×10^-10 M) to the culture medium. After incubation overnight, the lucifeiase expression was measured after addition of SteadyGlo according to the instructions of the manufacturer (Promega). […] The induction levels (Emax) were calculated relative to the basal activity of each heterodimer.

NURR-1/RXRα = target: T2, NURR-1/RXRα (Homo sapiens, UniProt P19793); experiment: Transactivation test, NURR-1-Gal4/RXRα, luciferase reporter in Cos-7 cells; format: cell-based; conditions: for Emax: COS-7, induction level relative to reference XCT0135908 at 2×10^−5 M (=100%), read-out: hNurr1_RXRaFL Emax (%); for EC50: Cos-7 cells, NURR-1-Gal4/RXRα, luciferase reporter, read-out: hNurr1_RXRaFL EC50
T2 construct: expressed in transfected cells; host or cells: Cos-7 cells
T2 sequence (P19793 whole entry, the tested form may be a part): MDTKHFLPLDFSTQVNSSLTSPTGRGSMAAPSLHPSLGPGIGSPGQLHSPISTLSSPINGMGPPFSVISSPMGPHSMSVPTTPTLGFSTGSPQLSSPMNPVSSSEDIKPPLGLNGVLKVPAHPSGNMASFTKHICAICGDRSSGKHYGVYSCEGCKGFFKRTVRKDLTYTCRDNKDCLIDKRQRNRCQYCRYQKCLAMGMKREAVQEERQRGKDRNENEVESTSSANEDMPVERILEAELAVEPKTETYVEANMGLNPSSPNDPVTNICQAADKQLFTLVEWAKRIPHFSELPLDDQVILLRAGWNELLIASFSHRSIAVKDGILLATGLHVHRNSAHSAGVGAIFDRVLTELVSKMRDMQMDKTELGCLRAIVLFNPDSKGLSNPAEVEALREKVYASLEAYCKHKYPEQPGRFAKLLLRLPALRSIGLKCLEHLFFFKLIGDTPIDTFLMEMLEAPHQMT
T2 sequence (P43354 whole entry partner, the tested form may be a part): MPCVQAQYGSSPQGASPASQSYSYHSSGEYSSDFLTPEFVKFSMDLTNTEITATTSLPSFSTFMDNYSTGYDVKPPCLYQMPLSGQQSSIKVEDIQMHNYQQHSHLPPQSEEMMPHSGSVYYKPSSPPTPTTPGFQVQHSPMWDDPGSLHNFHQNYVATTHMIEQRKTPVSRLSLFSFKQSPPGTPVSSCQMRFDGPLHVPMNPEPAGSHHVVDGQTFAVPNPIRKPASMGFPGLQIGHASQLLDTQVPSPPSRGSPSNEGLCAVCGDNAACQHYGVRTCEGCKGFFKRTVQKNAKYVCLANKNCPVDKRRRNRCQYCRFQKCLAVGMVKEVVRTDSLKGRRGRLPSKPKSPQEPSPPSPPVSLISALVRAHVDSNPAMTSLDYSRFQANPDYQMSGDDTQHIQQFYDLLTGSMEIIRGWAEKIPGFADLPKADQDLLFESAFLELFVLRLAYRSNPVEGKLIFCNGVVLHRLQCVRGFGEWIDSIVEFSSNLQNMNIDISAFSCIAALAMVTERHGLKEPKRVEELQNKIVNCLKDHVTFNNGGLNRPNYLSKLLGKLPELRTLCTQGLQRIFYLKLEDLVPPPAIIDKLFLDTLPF
T2 sequence (P04386 1-147 partner limits assumed): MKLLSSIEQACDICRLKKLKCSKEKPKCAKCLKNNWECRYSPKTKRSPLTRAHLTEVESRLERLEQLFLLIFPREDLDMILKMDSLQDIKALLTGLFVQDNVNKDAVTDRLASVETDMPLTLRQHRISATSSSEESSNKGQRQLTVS
Experimental: as §1

[1] = induction level relative to reference XCT0135908 at 2×10^−5 M (=100%)

T1 sequence (P48443 whole entry, the tested form may be a part): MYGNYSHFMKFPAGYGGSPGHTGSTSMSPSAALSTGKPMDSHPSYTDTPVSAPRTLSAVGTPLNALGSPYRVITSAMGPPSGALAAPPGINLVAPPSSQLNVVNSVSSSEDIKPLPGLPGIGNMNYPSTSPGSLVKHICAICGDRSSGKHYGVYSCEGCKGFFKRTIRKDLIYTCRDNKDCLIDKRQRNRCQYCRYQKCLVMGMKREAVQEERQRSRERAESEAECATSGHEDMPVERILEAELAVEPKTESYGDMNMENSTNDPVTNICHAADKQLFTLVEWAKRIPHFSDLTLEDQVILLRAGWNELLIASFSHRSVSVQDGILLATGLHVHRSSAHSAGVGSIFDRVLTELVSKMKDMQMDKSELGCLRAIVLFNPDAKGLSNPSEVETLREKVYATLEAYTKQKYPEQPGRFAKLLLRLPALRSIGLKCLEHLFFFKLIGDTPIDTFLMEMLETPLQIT
T1 sequence (P43354 whole entry partner, the tested form may be a part): as the sequence (P43354 whole entry partner, the tested form may be a part) above
T1 sequence (P04386 1-147 partner limits assumed): as the sequence (P04386 1-147 partner limits assumed) above

Cc1cn(S(=O)(=O)c2cccc(N3CC(C(=O)O)C3)c2)c2ccc(C(F)(F)F)cc12 [Example 59, 1-[3-[3-methyl-5-(trifluoromethyl)indol-1-yl]sulfonylphenyl]azetidine-3-carboxylic acid]
Emax (NURR-1/RXRγ): 39% | EC50 (NURR-1/RXRγ): 3580 nM | Emax (NURR-1/RXRα): 68% | EC50 (NURR-1/RXRα): 1380 nM

Cc1cn(-c2cc(Cl)cc(N3CC(C(=O)O)C3)c2)c2ccc(C(F)(F)F)cc12 [Example 42, 1-[3-chloroe-5-[3-methyl-5-(trifluoromethyl)indol-1-yl]phenyl]azetidine-3-carboxylic acid]
Emax (NURR-1/RXRγ): 67% | EC50 (NURR-1/RXRγ): > 5000 nM | Emax (NURR-1/RXRα): 81% | EC50 (NURR-1/RXRα): 5 nM

Cc1cn(-c2cccc(N3CC(C(=O)O)C3)c2)c2ccc(C(F)(F)F)cc12 [Example 41, 1-[3-[3-methyl-5-(trifluoromethyl)indol-1-yl]phenyl]azetidine-3-carboxylic acid]
Emax (NURR-1/RXRγ): 123% | EC50 (NURR-1/RXRγ): 0.7 nM | Emax (NURR-1/RXRα): 134% | EC50 (NURR-1/RXRα): 0.5 nM

CC(C)Cc1ccc2c(c1)OC(C)(C)CN2c1cccc(N2CC(C(=O)O)C2)c1 [Example 230, 1-[3-(7-isobutyl-2,2-dimethyl-3H-1,4-benzoxazin-4yl)phenyl]azetidine-3-carboxylic acid]
Emax (NURR-1/RXRγ): 85% | EC50 (NURR-1/RXRγ): 1000 nM | Emax (NURR-1/RXRα): 62% | EC50 (NURR-1/RXRα): 535 nM

Cc1cn(-c2cc(OC(F)(F)F)cc(N3CC(C(=O)O)C3)c2)c2ccc(C(F)(F)F)cc12 [Example 52, 1-[3-[3-methyl-5-(trifluoromethyl)indol-1-yl]-5-(trifluoromethoxy)phenyl]azetidine-3-carboxylic acid]
Emax (NURR-1/RXRγ): 117% | EC50 (NURR-1/RXRγ): 117 nM | Emax (NURR-1/RXRα): 86% | EC50 (NURR-1/RXRα): 83 nM

Cc1cc(-c2cccc(N3CCCC3)c2)cc(N2CC(C(=O)O)C2)c1 [Example 4, 1-[3-methyl-5-(3-pyrrolidin-1-ylphenyl)phenyl]azetidine-3-carboxlic acid]
Emax (NURR-1/RXRγ): 100% | EC50 (NURR-1/RXRγ): 28 nM | Emax (NURR-1/RXRα): 96% | EC50 (NURR-1/RXRα): 38 nM

O=C(O)C1CN(c2cccc(-c3cncc(C(F)(F)F)c3)c2)C1 [Example 34, 1-[3-[5-(trifluoromethyl)3-pyridyl]phenyl]azetidine-3-carboxylic acid]
Emax (NURR-1/RXRγ): 64% | EC50 (NURR-1/RXRγ): > 5000 nM | Emax (NURR-1/RXRα): 69% | EC50 (NURR-1/RXRα): > 5000 nM

O=C(O)C1CN(c2cccc(-c3cc(C(F)(F)F)ccc3OCCc3ccccc3)c2)C1 [Example 93, 1-[3-[2-phenyethyloxy-5-(trifluromethyl)phenyl]phenyl]azetidine-3-carboxylic acid]
Emax (NURR-1/RXRγ): 42% | EC50 (NURR-1/RXRγ): 31 nM | Emax (NURR-1/RXRα): 58% | EC50 (NURR-1/RXRα): 33 nM

O=C(O)C1CN(c2cccc(N3CC4(CCOC4)c4cc(C(F)(F)F)ccc43)c2)C1 (stereo not drawn) [Example 140, 1-[3-[5-(trifluoromethyl)spiro[indoline-3,3′-tetrahydrofuran]-1-yl]phenyl]azetidine-3-carboxylic acid]
Emax (NURR-1/RXRγ): 97% | EC50 (NURR-1/RXRγ): 30 nM | Emax (NURR-1/RXRα): 108% | EC50 (NURR-1/RXRα): 40 nM

Cc1cn(-c2cccc(N3CC(C(=O)NCCN4CCNC4=O)C3)c2)c2ccc(C(F)(F)F)cc12 [Example 176, 1-[3-[3-methyl-5-(trifluoromethyl)indol-1-yl]-phenyl]N-[2-(2-oximidazolidin-1-yl)ethyl]azetidine-3-carboxamide]
Emax (NURR-1/RXRγ): 130% | EC50 (NURR-1/RXRγ): 28 nM | Emax (NURR-1/RXRα): 113% | EC50 (NURR-1/RXRα): 12 nM

Cc1cn(-c2cccc(N3CC(C(=O)NC4CCOCC4)C3)c2)c2ccc(C(F)(F)F)cc12 [Example 180, 1-[3-[3-methyl-5-(trifluorometnyl)indol-1-yl]phenyl]-N-tetrahydropyran-4-yl-azetidine-3-carboxamide]
Emax (NURR-1/RXRγ): 110% | EC50 (NURR-1/RXRγ): 86 nM | Emax (NURR-1/RXRα): 103% | EC50 (NURR-1/RXRα): 54 nM

O=C(O)C1CN(c2cccc(-n3cc(CC4CCCC4)c4cc(C(F)(F)F)ccc43)c2)C1 [Example 127, 1-[3-[3-(cyclopentylmethyl)-5-(trifluoromethyl)indol-1-yl]phenyl]azetidine-3-carboxylic acid]
Emax (NURR-1/RXRγ): 113% | EC50 (NURR-1/RXRγ): 3 nM | Emax (NURR-1/RXRα): 117% | EC50 (NURR-1/RXRα): 4 nM

CC1(C)CN(c2cccc(N3CC(C(=O)NCCO)C3)c2)c2ccc(C(F)(F)F)cc2O1 [Example 275, 1-[3-[2,2-dimethyl-7-(trifluoromethyl)-3H-1,4-benzoxazin-4-yl]phenyl]-N-(2-hydroxyethyl)azetidine-3-carboxamide]
Emax (NURR-1/RXRγ): 98% | EC50 (NURR-1/RXRγ): 44 nM | Emax (NURR-1/RXRα): 109% | EC50 (NURR-1/RXRα): 8 nM

CC(C)(C)c1cccc(-c2cccc(N3CC(C(=O)O)C3)c2)n1 [Example 31, 2-tert-butyl-6-[3-(3-carboxyazetidine-1-yl)phenyl]pyridiuium chlrodie]
Emax (NURR-1/RXRγ): 59% | EC50 (NURR-1/RXRγ): 401 nM | Emax (NURR-1/RXRα): 62% | EC50 (NURR-1/RXRα): 153 nM

COc1cc(N2CC(C(=O)O)C2)cc(-n2cc(C)c3cc(C(F)(F)F)ccc32)c1 [Example 51, 1-[3-methoxy-5-[3-methyl-5-(trifluoromethyl)indol-1-yl]phenyl]azetidine-3-carboxylic acid]
Emax (NURR-1/RXRγ): 106% | EC50 (NURR-1/RXRγ): 29 nM | Emax (NURR-1/RXRα): 91% | EC50 (NURR-1/RXRα): 17 nM

CC(C)(C)c1cccc(-c2cccc(N3CC(C(=O)O)C3)c2)c1 [Example 84, 1-[3-(3-tert-butylphenyl)phenyl]azetidine-3-carboxylic acid]
Emax (NURR-1/RXRγ): 120% | EC50 (NURR-1/RXRγ): 82 nM | Emax (NURR-1/RXRα): 112% | EC50 (NURR-1/RXRα): 44 nM

CC1(C(=O)O)CN(c2cccc(-c3ccc4c(c3)C(C)(C)CCC4(C)C)c2)C1 [Example 87]
Emax (NURR-1/RXRγ): 38% | EC50 (NURR-1/RXRγ): > 5000 nM | Emax (NURR-1/RXRα): 69% | EC50 (NURR-1/RXRα): > 5000 nM

Cc1cn(-c2cccc(N3CC(C(=O)NCCO)C3)c2)c2ccc(C(F)(F)F)cc12 [Example 168]
Emax (NURR-1/RXRγ): 106% | EC50 (NURR-1/RXRγ): < 1 nM | Emax (NURR-1/RXRα): 102% | EC50 (NURR-1/RXRα): < 1 nM

COc1ccc2c(ccn2-c2cc(C)cc(N3CC(C(=O)O)C3)c2)c1 [Example 47, 1-[3-(5-methoxyindol-1-yl)-5-methylphenyl]azetidine-3-carboxylic acid]
Emax (NURR-1/RXRγ): 95% | EC50 (NURR-1/RXRγ): 542 nM | Emax (NURR-1/RXRα): 91% | EC50 (NURR-1/RXRα): 368 nM

O=C(O)C1CN(c2cccc(N3c4ccc(C(F)(F)F)cc4C4CCCCC43)c2)C1 (stereo not drawn) [Example 144, 1-[3-[6-(trifluoromethyl)-1,2,3,4,4a,9a-hexahydrocarbazol-9-yl]phenyl]azetidine-3-carboxylic acid]
Emax (NURR-1/RXRγ): 105% | EC50 (NURR-1/RXRγ): 24 nM | Emax (NURR-1/RXRα): 97% | EC50 (NURR-1/RXRα): 28 nM

CN(C)CCNC(=O)C1CN(c2cccc(N3CC(C)(C)Oc4cc(C(F)(F)F)ccc43)c2)C1 [Example 279, N-3(2-dimethylaminoethyl)-1-[3-[2,2-dimethyl-7-(trifluoromethyl)-3H-1,4-benzoxazin-4-yl]phenyl]azetidine-3-carboxamide]
Emax (NURR-1/RXRγ): 79% | Emax (NURR-1/RXRα): 95% | EC50 (NURR-1/RXRα): 375 nM

Cc1cn(-c2cccc(N3CC(C(=O)NC(C)C)C3)c2)c2ccc(C(F)(F)F)cc12 [Example 152, N-isopropyl-1-[3-[3-methyl-5-(trifluoromethyl)indol-1-yl]phenyl]azetidine-3-carboxamide]
Emax (NURR-1/RXRγ): 116% | EC50 (NURR-1/RXRγ): 10 nM | Emax (NURR-1/RXRα): 116% | EC50 (NURR-1/RXRα): 10 nM

Cc1cn(-c2cccc(N3CC(C(=O)NCCN(C)C)C3)c2)c2ccc(C(F)(F)F)cc12 [Example 153, N-(2-dimethylaminoethyl)-1-[3-[3-methyl-5-(trifluoromethyl)indol-1-yl]phenyl]azetidine-3-carboxamide]
Emax (NURR-1/RXRγ): 111% | EC50 (NURR-1/RXRγ): 455 nM | Emax (NURR-1/RXRα): 87% | EC50 (NURR-1/RXRα): 181 nM

CC(C)Cc1ccc2c(c1)OC(C)(C)CN2c1cccc(N2CC(C(=O)O)C2)c1 [Example 231, tert-butylammonium 1-[3-(7-isobutyl-2,2-dimethyl-3H-1,4-benzoxazin-4yl)phenyl]azetidine-3-carboxylate]
EC50 (NURR-1/RXRγ): 792 nM | hNurr1_RXRgFL Emax (%) (NURR-1/RXRγ; [1]): 66% | EC50 (NURR-1/RXRα): 318 nM | hNurr1_RXRaFL Emax (%) (NURR-1/RXRα; [1]): 58%

CCCCOc1ccc(C(F)(F)F)cc1-c1cccc(N2CC(C(=O)O)C2)c1 [Example 89]
Emax (NURR-1/RXRγ): 64% | EC50 (NURR-1/RXRγ): 21 nM | Emax (NURR-1/RXRα): 61% | EC50 (NURR-1/RXRα): 23 nM

Cc1cc(-c2cccc(N3CCOCC3)c2)cc(N2CC(C(=O)O)C2)c1 [Example 6, 1-[3-methyl-5-(3-morpholinophenyl)phenyl]azetidine-3-carboxylic acid]
Emax (NURR-1/RXRγ): 101% | EC50 (NURR-1/RXRγ): 461 nM | Emax (NURR-1/RXRα): 111% | EC50 (NURR-1/RXRα): 186 nM

O=C(O)C1CN(c2cccc(N3CC4(CCCC4)c4cc(C(F)(F)F)ccc43)c2)C1 [Example 139, 1-[3-[5′-(trifluoromethyl)spiro[cyclopentane-1,3′-indoline]-1′-yl]phenyl]azetidine-3-carboxylic acid]
Emax (NURR-1/RXRγ): 122% | EC50 (NURR-1/RXRγ): 10 nM | Emax (NURR-1/RXRα): 115% | EC50 (NURR-1/RXRα): 7 nM

Cn1cc(-c2cc(N3CC(C(=O)O)C3)cc(C(F)(F)F)c2)c2ccc(C(F)(F)F)cc21 [Example 28, 1-[3-[1-methyl-6-(trifluoromethyl)indol-3-yl]-5-(trifluoromethyl)phenyl]azetidine-3-carboxylic acid]
Emax (NURR-1/RXRγ): 58% | EC50 (NURR-1/RXRγ): 70 nM | Emax (NURR-1/RXRα): 76% | EC50 (NURR-1/RXRα): 45 nM
